Reference: PMC3602279 (Bioorganic & medicinal chemistry letters, 2013)
Entries after “also recorded” stand apart in the source; their conditions may differ.

Assays:
[1] = target: human μ opioid receptor (Homo sapiens, UniProt P35372); assay: [35S]GTPγS binding, stimulation and inhibition of agonist-stimulated binding; type: biochemical; settings: for Functional description / Imax (% maximal inhibition): Mu Opioid Receptor; for Imax (% maximal inhibition): inhibition of binding stimulated by 200 nM DAMGO; for Emax: read-out: Emax (% maximal stimulation)
[2] = target: human κ opioid receptor (Homo sapiens, UniProt P41145); assay: as above; type: biochemical; settings: for Functional description: Kappa Opioid Receptor; for Emax: read-out: Emax (% maximal stimulation)
Sequence of human κ opioid receptor (P41145 whole entry): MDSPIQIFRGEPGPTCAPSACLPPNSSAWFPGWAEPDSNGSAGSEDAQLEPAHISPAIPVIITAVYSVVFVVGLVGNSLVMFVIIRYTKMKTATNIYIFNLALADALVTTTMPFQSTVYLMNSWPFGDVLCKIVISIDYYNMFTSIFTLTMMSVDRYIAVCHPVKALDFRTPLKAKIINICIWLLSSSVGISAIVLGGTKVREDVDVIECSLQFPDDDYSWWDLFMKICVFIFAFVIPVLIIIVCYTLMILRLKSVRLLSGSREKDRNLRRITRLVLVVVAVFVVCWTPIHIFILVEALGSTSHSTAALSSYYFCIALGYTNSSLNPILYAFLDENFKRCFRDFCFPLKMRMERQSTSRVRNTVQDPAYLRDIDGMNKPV

Sequence of human μ opioid receptor (P35372 whole entry): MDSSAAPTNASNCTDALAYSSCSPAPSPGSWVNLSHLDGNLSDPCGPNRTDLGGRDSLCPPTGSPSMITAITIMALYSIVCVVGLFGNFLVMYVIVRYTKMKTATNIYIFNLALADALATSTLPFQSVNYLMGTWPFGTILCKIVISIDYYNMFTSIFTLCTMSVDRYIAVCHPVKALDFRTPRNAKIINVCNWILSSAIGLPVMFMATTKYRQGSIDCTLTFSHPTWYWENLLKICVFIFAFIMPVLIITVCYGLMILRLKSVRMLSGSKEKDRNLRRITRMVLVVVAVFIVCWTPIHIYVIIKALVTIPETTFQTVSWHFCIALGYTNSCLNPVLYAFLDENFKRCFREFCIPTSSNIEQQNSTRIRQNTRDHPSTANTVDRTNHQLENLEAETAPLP

Structure (SMILES) | Functional description [1] | Imax (% maximal inhibition) [1] [% maximal inhibition] | Emax [1] [%] | Functional description [2] | Emax [2] [%]
C[C@H]1C2Cc3ccc(C(N)=O)cc3[C@@]1(C)CCN2CC1CC1 [Compound 2, 8-carboxamidocyclazocine, reference compound] | functional partial agonists; also recorded: partial agonist | 76 ± 1.1 | 24 ± 1.9 | agonist | 87 ± 6.5
C[C@H]1C2Cc3ccc(C(=O)NCCc4ccc(-c5ccncc5)cc4)cc3[C@@]1(C)CCN2CC1CC1 [Compound 4] | partial agonist | 79 ± 3.3 | 33 ± 0.68 | agonist | 64 ± 5.1
C[C@H]1C2Cc3ccc(C(=O)NCCc4ccc(-c5ccccc5)cn4)cc3[C@@]1(C)CCN2CC1CC1 [Compound 8] | partial agonist | 53 ± 5.4 | 25 ± 1.1 | agonist | 64 ± 2.4
C[C@H]1C2Cc3ccc(C(=O)NCCc4ccc(-c5ccccn5)cc4)cc3[C@@]1(C)CCN2CC1CC1 [Compound 6] | partial agonist | 87 ± 3.1 | 31 ± 1.8 | agonist | 50 ± 2.6
C[C@H]1C2Cc3ccc(C(=O)NCCc4ccc(-c5ccccc5)nc4)cc3[C@@]1(C)CCN2CC1CC1 [Compound 7] | partial agonist | 87 ± 1.2 | 30 ± 2.3 | agonist | 52 ± 4.8
CC1C2Cc3ccc(C(=O)NCCc4ccc(-c5ccccc5)cc4)cc3C1(C)CCN2CC1CC1 (racemic) [Compound 1, N-(2-[1,1′-biphenyl]-4-ylethyl)-3-(cyclopropylmethyl)-1,2,3,4,5,6-hexahydro-6,11-dimethyl-2,6-methano-3-benzazocine-8-carboxamide, reference compound] | – | – | – | agonist | 76 ± 6.7
C[C@H]1C2Cc3ccc(C(=O)NCCc4ccc(-c5cccnc5)cc4)cc3[C@@]1(C)CCN2CC1CC1 [Compound 5] | partial agonist | 83 ± 2.9 | 28 ± 2.2 | agonist | 52 ± 0.55
